Experimental data from patent US20040044075A1, “Alpha acyloxyacetamides for kallikrein and urokinase inhibition” (Genzyme Corporation, priority 2002, published 2004).

Tests used:
[1] = system: ICR derived male or female mice; assay: Acetic acid writhing assay; type: in vivo; details: for % Reduction of Writhes: one hour before acetic acid
Description: The analgesic activity of a number of compounds of the present invention were tested in an acetic acid writhing assay disclosed in Inoue et al., Arzneimittel Forschung Drug Research 41:228 (1991), the entire teachings of which are incorporated herein by reference. The test substance was administered intraperitoneally (500, 100 and 20 mg/kg) to groups of 3 ICR derived male or female mice weighing 22±2 g one hour before the injection of acetic acid (3%, 10 ml/kg, IP). Reduction in the number of writhes by 50% or more per group of animals observed during the 5-10 minutes period after acetic acid administration, relative to a vehicle-treated control group (challenge with acetic acid), indicates analgesic activity.

Kallikrein = Kallikrein (Homo sapiens, UniProt P03952); assay: Kallikrein inhibition assay (fluorometric, H-Pro-Phe-Arg-AMC substrate); type: biochemical; details: 24° C, HEPES pH 7.5, 5% DMSO, fluorescence after ten minutes
Description: Kallikrein activity was assayed fluorometrically with an aminomethyl coumarin-containing (AMC-containing) substrate according to procedures described in Zimmerman et al., Proc. Natl. Acad. Sci. USA 75:750 (1978), the entire teachings of which are incorporated herein by reference. Specifically, enzyme assays with varying concentrations of the fluorogenic substrate H-Pro-Phe-Arg-AMC were conducted at 24° C in 0.05 M 4-(2-hydroxyethyl)-piperazineethanesulfonic acid (HEPES) buffer, pH 7.5/5% (vol/vol) dimethyl sulfoxide. The final volume was 0.1 ml in each assay. Fluorescence was read after ten minutes at 360 nm (activation wavelength) and 460 nm (emission wavelength).

[2] = system: Long Evans derived male or female rats; assay: Carageenan assay (hind paw edema); type: in vivo; details: for Inhibition (of hind paw edema): 3 hours after carageenan; for Edema: hind paw edema 3 hours after carageenan
Description: The assay was performed according to procedures disclosed in Winter et al, Proc. Exper. Biol. Med 111: 544 (1962), the entire teachings of which are incorporated herein by reference. […] Hind paw edema, as a measure of inflammation, was measured 3 hours after carageenan administration using a plethysmometer (Ugo Basile Catalog No. 7150) with water cell (25 mm diameter, Catalog No. 7157). Reduction of hind paw edema by 30% or more indicates significant acute anti-inflammatory activity.

male rats = assay: Rat model of inflammatory bowel disease (DNBS-induced distal colitis); type: in vivo
Description: Compounds were tested according to procedures described in C M Hogaboam et al., Eur. J. Pharmacol. 309:261 (1996), the entire teachings of which are incorporated herein by reference. Groups of 3 overnight fasted male rats weighing 150±10 grams were used. Distal colitis was induced by intra-colonic instillation of 0.5 ml/rat of DNBS (2,4-dinitrobenzene sulfonic acid, 60 mg/ml in ethanol 30%) after which air (2 ml) was gently injected through the cannula to ensure that the solution remained in the colon. Test compound was administered orally 24 and 2 hours before DNBS instillation and then daily for 5 days in total of 7 doses. The animals were sacrificed 24 hours after the final dose of test compound administration and each colon was removed and weighed. A 30 percent or more (≧30%) inhibition in net increase of colon to 100 grams body weight ratio, relative to vehicle-control-2 group is considered significant.

[3] = 4 mg/kg PO × 7, with DNBS, rats
[4] = 20 mg/kg PO × 7, with DNBS, rats
[5] = 75 mg/kg PO × 7, with DNBS, rats

Sequence of Kallikrein (P03952 whole entry): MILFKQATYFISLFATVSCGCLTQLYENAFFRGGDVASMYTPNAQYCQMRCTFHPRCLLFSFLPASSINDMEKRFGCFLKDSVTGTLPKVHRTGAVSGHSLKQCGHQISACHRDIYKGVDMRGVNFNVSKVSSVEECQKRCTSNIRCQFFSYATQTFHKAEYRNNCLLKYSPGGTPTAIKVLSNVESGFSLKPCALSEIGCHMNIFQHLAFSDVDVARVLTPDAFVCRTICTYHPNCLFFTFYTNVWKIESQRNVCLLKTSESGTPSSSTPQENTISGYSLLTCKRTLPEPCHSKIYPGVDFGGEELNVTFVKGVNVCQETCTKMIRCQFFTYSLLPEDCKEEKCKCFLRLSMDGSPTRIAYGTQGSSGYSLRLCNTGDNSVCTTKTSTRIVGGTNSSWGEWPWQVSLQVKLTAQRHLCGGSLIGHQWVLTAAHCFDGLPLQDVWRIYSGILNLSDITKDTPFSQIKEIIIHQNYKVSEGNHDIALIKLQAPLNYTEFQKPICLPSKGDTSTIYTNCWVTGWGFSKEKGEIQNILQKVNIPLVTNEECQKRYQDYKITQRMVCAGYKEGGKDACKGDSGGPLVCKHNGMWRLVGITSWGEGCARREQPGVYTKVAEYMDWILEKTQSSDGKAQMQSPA

SMILES: COc1ccc(OC)c(C(=O)CCC(=O)OC(C(=O)NCc2cc(OC)c(OC)c(OC)c2)c2ccc3ccccc3c2)c1 (stereo not drawn) [Compound (24)]
- % Reduction of Writhes ([1]; 20 mg/kg IP): 0%
- % Reduction of Writhes ([1]; 100 mg/kg IP): 25%
- % Reduction of Writhes ([1]; 500 mg/kg IP): 83%
- IC50 (Kallikrein): 0.247 µM

SMILES: COc1ccc(OC)c(C(=O)CCC(=O)OC(C(=O)NCc2cc(OC)c(OC)c(OC)c2)c2ccc(Br)cc2)c1 (stereo not drawn) [Compound (26)]
- % Reduction of Writhes ([1]; 20 mg/kg IP): 25%
- % Reduction of Writhes ([1]; 100 mg/kg IP): 58%
- % Reduction of Writhes ([1]; 500 mg/kg IP): 75%
- significance of response in the acetic acid writhing test (in words) ([1]; both the 500 and 100 mg/kg doses IP): significant response
- IC50 (Kallikrein): 0.191 µM
- Inhibition (of hind paw edema) ([2]; 30 mg/kg IP): 0%
- Edema ([2]; 30 mg/kg IP): 0.97 mL
- Inhibition (of hind paw edema) ([2]; 100 mg/kg IP): 19%
- Edema ([2]; 100 mg/kg IP): 0.76 mL
- Inhibition (of hind paw edema) ([2]; 300 mg/kg IP): 34%
- Edema ([2]; 300 mg/kg IP): 0.62 mL
- dose response in the carageenan assay (in words) ([2]; 300, 100 and 30 mg/kg IP): dose responsive activity
- statistical significance of response in the carageenan assay (in words) ([2]; highest dose (300 mg/kg) IP): statistically significant response
- Ave. (average final weight of the colon in grams) (male rats; [3]): 1.061 grams
- Inhibition (percent inhibition in net increase of colon weight relative to control Group 2) (male rats; [3]): 0%
- Net Inc. (net increase in weight of the colon relative to control Group 1) (male rats; [3]): 0.574 grams
- Ave. (average final weight of the colon in grams) (male rats; [4]): 0.947 grams
- Inhibition (percent inhibition in net increase of colon weight relative to control Group 2) (male rats; [4]): 17%
- Net Inc. (net increase in weight of the colon relative to control Group 1) (male rats; [4]): 0.460 grams
- Ave. (average final weight of the colon in grams) (male rats; [5]): 0.857 grams
- Inhibition (percent inhibition in net increase of colon weight relative to control Group 2) (male rats; [5]): 33%
- Net Inc. (net increase in weight of the colon relative to control Group 1) (male rats; [5]): 0.370 grams
- dose response in the rat model of inflammatory bowel disease (in words) (male rats; 75, 20 and 4 mg/kg PO × 7, rats): dose responsive activity
- statistical significance of response in the rat model of inflammatory bowel disease (in words) (male rats; highest dose (75 mg/kg) PO × 7, rats): statistically significant response
- activity in a rat model of inflammatory bowel disease (in words) (male rats; summary statement): activity

SMILES: COc1cc(CNC(=O)C(OC(=O)CCOc2ccccc2)c2ccc(Br)cc2)cc(OC)c1OC (stereo not drawn) [Compound (27)]
- % Reduction of Writhes ([1]; 20 mg/kg IP): 8%
- % Reduction of Writhes ([1]; 100 mg/kg IP): 25%
- % Reduction of Writhes ([1]; 500 mg/kg IP): 92%
- IC50 (Kallikrein): 0.364 µM

SMILES: COc1ccc(NC(=O)C(OC(=O)CSc2ncccn2)c2ccc(Br)cc2)cc1OC (stereo not drawn) [Compound (29)]
- % Reduction of Writhes ([1]; 20 mg/kg IP): 17%
- % Reduction of Writhes ([1]; 100 mg/kg IP): 33%
- % Reduction of Writhes ([1]; 500 mg/kg IP): 83%
- IC50 (Kallikrein): 0.31 µM

SMILES: COc1ccc2c(c1)c(CC(=O)O)c(C)n2C(=O)c1ccc(Cl)cc1 [Indomethacin, reference compound]
- Inhibition (of hind paw edema) ([2]; 10 mg/kg IP): 53%
- Edema ([2]; 10 mg/kg IP): 0.44 mL
